From patent US20240108740A1, “THERAPEUTIC COMPOSITIONS INCLUDING SPN10 AND USES THEREOF” (Stealth BioTherapeutics Inc., priority 2022, published 2024)
Residues, ends and D or L forms follow the SMILES beside them.

Tests used:
vincristine-related pain = assay: Treatment of vincristine-induced hyperalgesia in humans; format: in vivo, human; conditions: s.c., once daily for 14 days
Description: Patients will be recruited to the study as they present in clinic with chronic (>6 months' duration), spontaneous, ongoing, vincristine-related pain. Those enrolled will rate their daily maximum level of pain at 4 or greater on a visual analogue scale (VAS). The patients will be screened for their willingness to enroll in the study, and informed consent will be obtained. Healthy subjects will also be recruited for collection of comparison data. No subjects in either the patient or comparison group will have known risk factors for any other cause of peripheral neuropathy, including diabetes, AIDS, chronic alcoholism, or previous radiation exposure. […] Touch and Sharpness Detection Thresholds-Touch detection thresholds will be determined with von Frey monofilaments using the up/down method as previously reported. […] The force of the filament detected four consecutive times will be assigned as the touch detection threshold. Sharpness detection will be determined using weighted 30-gauge metal cylinders. […] The percentages of each reply will be calculated and then combined into group grand means for comparison. The 50% sharpness detection threshold will be calculated as the weighted needle that caused five or more sharp responses after 10 consecutive stimuli. Grooved Pegboard Test-Manual dexterity will be assessed with the grooved pegboard test. […]

Wild-type (WT) mice = assay: Example 2: acute cerebral ischemia (occlusion of the right middle cerebral artery); format: in vivo, mouse
Protocol: Cerebral ischemia will be induced by occlusion of the right middle cerebral artery for 30 min. Wild-type (WT) mice will be given either saline vehicle (Veh) (i.p., n=9), peptide conjugates (2 mg/kg or 5 mg/kg, i.p., n=6), aromatic-cationic peptides (e.g., an equivalent molar dose of aromatic-cationic peptide based on the concentration of the aromatic-cationic peptide administered in the peptide conjugate treatment group), SPN10(s) (e.g., an equivalent molar dose of SPN10 based on the concentration of SPN10 administered in the peptide conjugate treatment group), or SPN10(s) in combination with aromatic-cationic peptides (e.g., an equivalent molar dose of SPN10 based on the concentration of SPN10 administered in the peptide conjugate treatment group and an equivalent molar dose of aromatic-cationic peptide based on the concentration of aromatic-cationic peptide administered in the peptide conjugate treatment group) at 0, 6, 24 and 48 hours after ischemia. Mice will be sacrificed 3 days after ischemia. Brains will be frozen, sectioned, and stained using Nissl stain. Infarct volume and hemispheric swelling will be determined using an image analyzer. Data will be analyzed by one-way ANOVA with posthoc analysis.

[1] = test system: Ang II-induced hypertensive cardiomyopathy; assay: Ang II (4 weeks) induced cardiac NADPH oxidase, p38 MAPK and apoptosis; format: in vivo
Description: It is anticipated that SPN10(s) (with or without aromatic-cationic peptides) or peptide conjugates act downstream of NADPH oxidase and will reduce activation of p38 MAPK and apoptosis in response to Ang II. […] Mitochondrial ROS, either directly, or indirectly by activating apoptosis signal regulating kinase, may induce apoptosis. It is anticipated that Ang II will induce cardiac apoptosis, which will be shown through an increase in cleaved caspase-3.

## N=C(N)NCCC[C@H](NC(=O)[C@@H](N)Cc1c[nH]c2ccccc12)C(=O)N[C@@H](Cc1c[nH]c2ccccc12)C(=O)N[C@@H](CCCCN)C(N)=O [SPN10, H-L-Trp-L-Arg-L-Trp-L-Lys-NH2] (H-WRWK-NH2)
vincristine-related pain
  hyperalgesia symptoms: reduction
Wild-type (WT) mice; 2 mg/kg i.p. at 0, 6, 24 and 48 hours
  depletion of GSH in the ipsilateral cortex: significantly be reduced
Wild-type (WT) mice; treatment at 0, 6, 24 and 48 hours after 30 minute occlusion, compared to saline
  infarct volume and hemispheric swelling: significant reduction in infarct volume and hemispheric swelling
[1]; 4 weeks of Ang II
  Ang II-increased cardiac NADPH oxidase activity: not be changed
[1]; Ang II
  activation of caspase-3 caused by Ang II (cleaved caspase-3): completely prevent
[1]; Ang II for 4 weeks
  phosphorylation of p38 MAPK: significantly and nearly fully attenuated
